# From patent publication US20120046273A1, “COMPOUNDS AND COMPOSITIONS FOR COGNITION-ENHANCEMENT, METHODS OF MAKING, AND METHODS OF TREATING” (MITHRIDION, INC., priority 2009, published 2012)
# “Also recorded” adds a separate entry of the source. Where two headings read alike, the source gives them in different places.
# What was measured:
# [1] = test system: salivary gland inositol phosphate signaling pathway; assay: In vivo tissue inositol phosphate signaling pathway activation, salivary gland; set-up: species or system rat; conditions: for block of increase in salivary gland inositol phosphate caused by 82: 1 mg/kg of 82; for inhibition of salivary gland inositol phosphate response to MCD-386: 50 mg/kg MCD-386, antagonist 0.3 mg/kg
# Description: (§1) Experimental compounds or drug substances were administered using standard techniques to Long Evans Hooded rats weighing 225 to 350 grams, and which had been pretreated with a subcutaneous injection of lithium chloride at a suitable dose between 3 and 10 mmoles per kg. At suitable times the animals were briefly anesthetized using 5% isoflurane and euthanized by decapitation. The brains and submaxillary salivary glands were rapidly dissected out, and the hippocampuses were dissected from the brains. The dissected tissues were homogenized in a suitable volume of ice-cold phosphate-buffered saline containing 10 mM lithium chloride, pH7.4, using a tissue homogenizer, and used immediately or frozen in aliquots at −80degC. for future use. The concentration of inositol-1-phosphate was determined in the homogenates using the IPOne TR-FRET assay (CisBio cat no 621PAPEB), following the manufacturer's instruction
# [2] = test system: hippocampal inositol phosphate signaling pathway; assay: In vivo tissue inositol phosphate signaling pathway activation, hippocampus; set-up: species or system rat; conditions: 1 mg/kg of 82; antagonist 0.03 mg/kg
# Description: as §1
# anesthetized rats = assay: Salivation on iontophoretic transdermal delivery of agonist and antagonist from one patch; format: in vivo, rat; conditions: patch with 1 mg of 82 plus 0.01mg antagonist
# Description: Experimental compounds and drug substances were delivered transdermally in rats using iontophoresis as follows. The fur was shaved from the backs of Long Evans Hooded rats weighing 225 to 325 grams, using electric clippers. Experimental compounds and drug substances were formulated at suitable concentrations an aqueous mixture of the following composition:
# The polyvinyl alcohol/water was heated to 95 degC. until it became clear, then the other constituents were added and mixed well. The mixture was introduced into suitable molds containing a disc-shaped cavity 2.2 cm diameter and 2.2 mm deep. Molds may be fabricated using two glass sheets separated by a silicone rubber sheet with suitable sized cavities and filling ports cut-outs. The molds were subject to 3 freeze-thaw cycles at −80degC. and 20degC. until a firm cryogel was obtained. The gels were separated from the molds and trimmed into a circular shape. The gel was placed in a silicone rubber casing with one face in contact with a circular silver foil anodic electrode (22 mm dia/250 microns thick), and the assembly was placed on the shaved skin of the rat such that the other face was in contact with the skin on one side of the back of the rat. The rubber casing formed a seal over and around the gel/electrode assembly. […] This was placed on the other side of the shaved back of the rat, the edges of the gel discs being about 20 mm apart at their nearest point. A DC voltage was applied across the two patches from a constant-current DC power supply and the voltage adjusted to obtain the desired current, such that the skin of the animal completed the electrical circuit.
# The devices were placed on shaved backs of anesthetized rats and salivation was measured.
# The animals were placed slightly head-down on an inclined, heated ramp. Rectal temperature was monitored using a thermocouple and the temperature of the heating pad was adjusted manually to maintain normal body temperature. Saliva was collected from the mouth by absorption onto pre-weighed slips of filter paper. The filter paper was changed periodically and the amount of saliva was measured by weighing the filter paper slips
# [3] = target: T1, human muscarinic M1 receptors (Homo sapiens, UniProt P11229); assay: Inositol phosphate production in huM1/A9L cells (IPOne TR-FRET); format: cell-based; conditions: for huM1/A9L ED50 relative to CCh: potency relative to carbachol; for huM1/A9L Smax: percentage of maximal stimulation by carbachol
# T1 construct: expressed in transfected cells; host or cells: A9L cells (gift from Professor W Messer)
# T1 sequence (P11229 1-460): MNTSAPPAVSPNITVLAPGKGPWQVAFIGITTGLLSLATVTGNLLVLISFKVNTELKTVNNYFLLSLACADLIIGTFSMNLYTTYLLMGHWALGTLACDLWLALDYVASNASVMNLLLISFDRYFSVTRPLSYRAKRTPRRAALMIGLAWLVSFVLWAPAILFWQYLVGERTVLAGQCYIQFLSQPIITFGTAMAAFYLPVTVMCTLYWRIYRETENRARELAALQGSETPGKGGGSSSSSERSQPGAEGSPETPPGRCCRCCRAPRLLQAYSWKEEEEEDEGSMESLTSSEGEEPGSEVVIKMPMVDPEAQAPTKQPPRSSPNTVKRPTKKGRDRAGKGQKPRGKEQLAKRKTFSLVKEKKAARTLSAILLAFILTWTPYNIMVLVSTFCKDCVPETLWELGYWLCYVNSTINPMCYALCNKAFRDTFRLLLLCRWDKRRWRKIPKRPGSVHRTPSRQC
# Description: (§2) Muscarinic M1 and M3 agonist activity was evaluated by measuring the stimulation of inositol phosphate (IP) production in the presence of lithium chloride from A9L cells transfected with expression plasmids containing human muscarinic M1 and M3 receptors, respectively. The cell lines were a gift from Professor W Messer, and the methods were as described in Tejada F R et al. J. Med. Chem. 2006; 49: 7518-31 except that the assay was scaled down to run in 384 well plates, and IP was measured in the cell lysates using the non-isotopic IPOne TR-FRET assay (CIS-BIO, Inc).
# (§3) Cells were grown to 90% confluence in 384 well hi-base plates (Greiner Bio-One), compounds were added at suitable concentrations in growth medium containing 10 mM LiCL, buffered with an extra 10 mM HEPES (pH7.4), and incubated for 60 minutes at 37° C. Cells were lysed and assayed for IP following the manufacturer's instructions.
# (§4) The value for a full agonist is 100%, while partial agonists give values below 100%.
# [4] = target: T2, human muscarinic M3 receptors (Homo sapiens, UniProt P20309); assay: Inositol phosphate production in huM3/A9L cells (IPOne TR-FRET); format: cell-based; conditions: for huM3/A9L ED50 relative to CCh: potency relative to carbachol; for huM3/A9L Smax: percentage of maximal stimulation by carbachol
# T2 construct: expressed in transfected cells; host or cells: A9L cells (gift from Professor W Messer)
# T2 sequence (P20309 whole entry): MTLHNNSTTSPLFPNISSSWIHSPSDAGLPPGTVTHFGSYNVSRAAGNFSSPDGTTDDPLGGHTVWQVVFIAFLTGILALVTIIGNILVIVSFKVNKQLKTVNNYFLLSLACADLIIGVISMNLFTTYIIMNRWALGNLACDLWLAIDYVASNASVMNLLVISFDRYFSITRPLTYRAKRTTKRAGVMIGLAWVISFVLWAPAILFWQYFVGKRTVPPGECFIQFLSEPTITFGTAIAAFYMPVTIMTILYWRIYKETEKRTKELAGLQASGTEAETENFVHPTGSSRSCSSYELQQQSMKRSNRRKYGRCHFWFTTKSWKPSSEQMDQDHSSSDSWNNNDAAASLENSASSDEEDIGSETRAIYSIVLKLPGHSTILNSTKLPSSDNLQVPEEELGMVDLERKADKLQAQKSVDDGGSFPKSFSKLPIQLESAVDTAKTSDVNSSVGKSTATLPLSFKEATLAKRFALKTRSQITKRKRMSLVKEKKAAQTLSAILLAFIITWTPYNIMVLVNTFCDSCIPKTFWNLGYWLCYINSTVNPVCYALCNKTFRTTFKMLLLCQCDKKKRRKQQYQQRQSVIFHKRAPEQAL
# Description: as §2, §3, §4
# human FMO1 Supersomes = target: T3, human FMO1 Supersomes (Homo sapiens, UniProt Q01740); assay: Metabolism by flavin monoxygenase 1 (FMO1) Supersomes; format: in vitro ADME
# T3 construct: purchased BD Biosciences 456241
# T3 sequence (Q01740 1-532): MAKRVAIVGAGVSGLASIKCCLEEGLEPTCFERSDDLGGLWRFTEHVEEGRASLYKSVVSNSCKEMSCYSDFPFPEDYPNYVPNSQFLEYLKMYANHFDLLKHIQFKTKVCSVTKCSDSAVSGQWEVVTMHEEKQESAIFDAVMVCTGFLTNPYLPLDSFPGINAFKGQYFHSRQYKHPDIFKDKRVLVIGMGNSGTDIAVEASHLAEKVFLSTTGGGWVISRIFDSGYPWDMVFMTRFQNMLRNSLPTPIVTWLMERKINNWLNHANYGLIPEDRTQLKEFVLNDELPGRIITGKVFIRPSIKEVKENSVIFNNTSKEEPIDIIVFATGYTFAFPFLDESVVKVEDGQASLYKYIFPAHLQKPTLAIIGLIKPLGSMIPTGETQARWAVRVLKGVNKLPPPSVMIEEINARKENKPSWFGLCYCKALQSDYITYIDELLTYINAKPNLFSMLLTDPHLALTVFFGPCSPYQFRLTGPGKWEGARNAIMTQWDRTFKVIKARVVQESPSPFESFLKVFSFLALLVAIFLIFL
# Description: […] Aliquots were removed every 10 minutes, and 1% formic acid was added to halt the reaction. Samples were centrifuged, filtered through 0.2 micron spinfilter and the amount of each compound in the supernatants was quantitated using LC/MS/MS.
# [5] = test system: pooled male Sprague-Dawley rat liver microsomes; assay: Metabolism by rat liver microsomes; format: in vitro ADME; conditions: 6 hours incubation
# Description: Compounds were incubated with pooled male Sprague-Dawley rat liver microsomes (BD Biosciences, #452501) and an NADP-regenerating system in a phosphate buffer (pH 7.4) for a total of 6 hours. Aliquots were removed every 2 hours, and 1% formic acid was added to halt the reaction. Samples were centrifuged, filtered through 0.2 micron spinfilter and the amount of each compound in the supernatants was quantitated using LC/MS/MS.
# [6] = test system: pooled male human liver microsomes; assay: Metabolism by human liver microsomes; format: in vitro ADME; conditions: 6 hours incubation
# Description: Compounds were incubated with pooled male human liver microsomes (BD Biosciences, #452172) and an NADP-regenerating system in a phosphate buffer (pH 7.4) for a total of 6 hours. Aliquots were removed every 2 hours, and 1% formic acid was added to halt the reaction. Samples were centrifuged, filtered through 0.2 micron spinfilter and the amount of each compound in the supernatants was quantitated using LC/MS/MS.
# [7] = test system: apomorphine induced climbing; assay: Apomorphine induced climbing model of psychosis; format: in vivo, CD-I mice; conditions: mice, sc
# Description: As described in Costall et. al. European Journal of Pharmacology 1978, 50, 39. individual CD-I mice, 1-2 months old, were placed in a cylindrical wire mesh cage (13.2 cm high×13.2 cm diameter) constructed of steel wire 1 mm thick spaced at 1.2 cm^2. Cylinders were placed in a standard OptiMICE mouse cage (29×32×9×29 cm wide and 14 cm high) with adequate wood chip bedding provided. Observations of climbing (defined as 3 or more paws off the ground) were carried out every 5 minutes at a duration of 1 minute for 30 minutes. Animals were injected subcutaneously under isoflurane anesthesia with test compounds, reference compounds, which included clozapine, haloperidol, olanzapine and xanomeline, or PBS as a control. This was followed 5 minutes later by 2 mg/kg apomorphine hydrochloride. All drugs were dissolved in PBS or a mixture of (by volume) 96% PBS and 4% hydroxypropyl-beta-cyclodextrin, and dosed at a rate of 5 ml per kilogram of body weight. Following injections, animals were replaced in the mesh cages and observed for climbing (defined as 3 or more paws off the ground) every 5 minutes for a duration of 1 minute for 60 minutes after dosing.
# [8] = antagonist 0.1 mg/kg (oxybutinin or darifenacin)
compound,measurement,setting,value
C[N+]1(C)CCC(OC(=O)C(O)(c2ccccc2)C2CCCC2)C1 (stereo not shown) [glycopyrrolate],block of increase in salivary gland inositol phosphate caused by 82,[1]; antagonist 0.03 mg/kg,can block
same,inhibition of salivary gland inositol phosphate response to MCD-386,[1],virtually completed inhibited
same,block of increase in hippocampal inositol phosphate caused by 82,[2],without blocking the increase in hippocampal inositol phosphate
same,reduction of salivation caused by transdermal iontophoretic delivery of 82,anesthetized rats,greatly reduced
"Cc1noc(C2=CCCN(C)C2)n1 [Compound 126, 3-methyl-5-(1-methyl-1,2,5,6-tetrahydropyridin-3-yl)-1,2,4-oxadiazole, reference compound]",potency and efficacy at M1 muscarinic receptors,[3],reasonable potency and efficacy
same,selectivity between M1 and M3 receptors,[3],some selectivity for M1 versus M3 receptors
same,huM1/A9L ED50 relative to CCh,[3],+ (potency 2-10x CCh)
same,huM3/A9L ED50 relative to CCh,[4],+ (potency 2-10x CCh)
same,extent of metabolism in FMO Supersomes,human FMO1 Supersomes,almost completely metabolized; also recorded: nearly completely metabolized
same,extent of metabolism in rat liver microsomes,[5],nearly completely metabolized
same,extent of metabolism in human liver microsomes,[6],nearly completely metabolized
same,PAMPA (? × 106),PAMPA test,12.75 ? × 106
same,rate of crossing the lipid layer in the PAMPA test,PAMPA test,slightly better
"Cc1noc(C2CN3CCC2CC3)n1 (stereo not shown) [Compound 127, 3-methyl-5-(quinuclidin-3-yl)-1,2,4-oxadiazole, reference compound]",selectivity between M1 and M3 receptors,[3],essentially non-selective
same,huM1/A9L Smax,[3],50-100%
same,huM1/A9L ED50 relative to CCh,[3],++ (potency >10x CCh)
same,huM3/A9L Smax,[4],50-100%
same,huM3/A9L ED50 relative to CCh,[4],++ (potency >10x CCh)
same,extent of metabolism in FMO Supersomes,human FMO1 Supersomes,almost completely metabolized
same,PAMPA (? × 106),PAMPA test,3.02 ? × 106
same,rate of crossing the lipid layer in the PAMPA test,PAMPA test,significantly better
"[2H]C([2H])([2H])c1noc(C2CCCNC2)n1 (stereo not shown) [Compound 88, 3-D3-Methyl-5-(piperidin-3-yl)-1,2,4-oxadiazole]",huM1/A9L Smax,[3],116%
same,huM1/A9L ED50 relative to CCh,[3],+ (potency 2-10x CCh)
same,huM3/A9L Smax,[4],60%
same,huM3/A9L ED50 relative to CCh,[4],+/− (potency 0.5-2x CCh)
same,activity in the apomorphine induced climbing model,[7],potent and effective
same,extent of metabolism in FMO Supersomes,human FMO1 Supersomes,less than half metabolized
same,extent of metabolism in rat liver microsomes,[5],far more stable than compounds 126 and 127
same,extent of metabolism in human liver microsomes,[6],metabolized significantly less in human liver microsomes than in rat liver microsomes
CCN(CC)CC#CCOC(=O)C(O)(c1ccccc1)C1CCCCC1 (stereo not shown) [oxybutinin],block of increase in salivary gland inositol phosphate caused by 82,[1]; [8],less effective
same,inhibition of salivary gland inositol phosphate response to MCD-386,[1],less effective
same,reduction of salivation caused by transdermal iontophoretic delivery of 82,anesthetized rats,"reduced salivation, but were less effective"
"Clc1cccc(Cl)c1N=C1NCCN1 [Clonidine, reference compound]",PAMPA (? × 106),,7.95 ? × 106
CC(C)[N+](C)(CCOC(=O)C1c2ccccc2Oc2ccccc21)C(C)C [propantheline],block of increase in salivary gland inositol phosphate caused by 82,[1]; antagonist 0.03 mg/kg,can block
same,inhibition of salivary gland inositol phosphate response to MCD-386,[1],virtually completed inhibited
same,block of increase in hippocampal inositol phosphate caused by 82,[2],without blocking the increase in hippocampal inositol phosphate
same,reduction of salivation caused by transdermal iontophoretic delivery of 82,anesthetized rats,greatly reduced
NC(=O)C(c1ccccc1)(c1ccccc1)[C@@H]1CCN(CCc2ccc3c(c2)CCO3)C1 [darifenacin],block of increase in salivary gland inositol phosphate caused by 82,[1]; [8],less effective
same,inhibition of salivary gland inositol phosphate response to MCD-386,[1],less effective
same,reduction of salivation caused by transdermal iontophoretic delivery of 82,anesthetized rats,"reduced salivation, but were less effective"
